Reference: patent US11324217B2, “Preparation method and application of polyketides bearing the trans-fused decalin skeleton” (QINGDAO AGRICULTURAL UNIVERSITY, priority 2019, dated 2022)

Columns and labels:
[1] = test system: Echinochloa crusgalli seedlings; test: Herbicidal activity test (PPA method), growth inhibition of radicles of weed seedlings; type: in vivo; conditions: Echinochloa crus-galli, 48 h, radicle length after 2 days in agar, read-out: Growth inhibition rates (%) to radicles of Echinochloa crusgalli seedlings; for inhibition at 2.5 µg/mL: 2.5 μg/mL; for inhibition at 5 µg/mL: 5 μg/mL; for inhibition at 10 µg/mL: 10 μg/mL
From the text: The method of grinded plant tissue powder mixed with agar (PPA method), established by Luo Xiaoyong, et al. (Journal of Qingdao Agricultural University, 2007, 24: 267-270) is used to quickly determine the herbicidal activity of compounds. It has the advantages of high sensitivity, easy operation, good repeatability, and large-throughput screening. It is also easy to observe the growth status of indicator plants. Luo Xiaoyong used this method to quickly determine the herbicidal activity of the leaves of 40 garden plants. Zhang Lijuan (Plant Protection, 2016, 42: 63-66) and Su Fansheng (Applied Chemistry, 2014, 31: 290-295) quickly determined the herbicidal activity of corn stalks and imidazole compounds by the PPA method with Echinochloa crusgalli as the test weed. Zhang Yun (Journal of Microbiology, 2015, 55: 292-298) and Li Shuai (Journal of Agricultural and Food Chemistry, 2014, 62: 8997-9001) studied the inhibitory effect of microbial secondary metabolites on the root growth of Amaranthus retroflexus by using Amaranthus retroflexus as the test weed.
Weed seeds were first sterilized with 0.2% sodium hypochlorite for 15 min, then washed repeatedly with sterile distilled water, soaked for 4-6 h, and germinated for 12 h in a medical tray with sterile wet filter paper in a dark place.
The compound to be tested was dissolved in dimethyl sulfoxide (DMSO) to obtain a 4 mg/mL solution, and the 4 mg/mL solution was then diluted with 50% DMSO aqueous solution to different concentrations for later use.
1 mL of the sample solution and 99 mL of sterile agar aqueous solution were mixed well, and poured into three 25 mL small beakers to be condensed. Needle-nose tweezers were used to insert 5 small holes on the surface of the condensed agar, the germinated test weed seedlings with 4-5 radicles were clamped separately and inserted gently and vertically into the small holes. Each beaker had five pieces of such agar and the operation was repeated for three times. Then, all beakers were sealed with tin foil and placed in a sterilized small carton, and the sterilized small carton was then placed in an artificial climate box for shading culture for 2 days. The artificial climate box set an automatic cycle of 14 h lighting (25° C.) and 10 h shading (20° C.), and the relative humidity in the box was set at 60%. After 2 days, the lengths of the radicle and hypocotyl were investigated to calculate the weed growth inhibition rate.
The calculation equations were as follows (Chinese Agricultural Science Bulletin, 2013, 29: 177-182): Growth=length of radicle (hypocotyl) after treatment−length of radicle (hypocotyl) before treatment; Inhibition rate (%)=[(average growth of control−average growth of treatment)/average growth of control]×100%.

Brine shrimp = test: Lethal activity of Brine shrimp; type: in vivo; conditions: concentration of 500 μg/mL; 24 h incubation at room temperature
Method: Brine shrimp is an aquatic animal that is highly sensitive to toxic substances. It can be used as a model organism to preliminary evaluate the toxic effects of compounds on the environment. Masi, M. et al. used Brine shrimp to preliminary evaluate the toxicity of the herbicidal active compounds Colletochlorins E and F (Journal of Agricultural and Food Chemistry, 2017, 65: 1124-1130).
100 mg of Brine shrimp eggs were placed in a 500 mL beaker, 400 mL of artificial seawater was added, the Brine shrimp eggs were slowly inflated with an air pump and hatched at room temperature for 24 h, the egg shells and unhatched eggs were removed, and the Brine shrimps were further incubated for 24 h.
The compound to be tested was dissolved in DMSO to obtain a 20 mg/mL mother liquor, and the mother liquor was then sequentially diluted twice to obtain 10, 5 and 2.5 mg/mL solutions for later use.
195 μL of artificial seawater containing 10-15 Brine shrimps were added into each well of a 96-well cell culture plate to make a test culture plate. […] After incubation at room temperature for 24 h, the number of Brine shrimp deaths was counted under a binocular dissecting microscope. […]

| Structure (SMILES) | inhibition at 2.5 µg/mL [1] | inhibition at 5 µg/mL [1] | inhibition at 10 µg/mL [1] | lethal activity of Brine shrimp (Brine shrimp) |
| --- | --- | --- | --- | --- |
| CCOCN(C(=O)CCl)c1c(C)cccc1CC [Acetochlor, reference compound] | 54.8 ± 1.3% | 65.6 ± 1.8% | 76.1 ± 1.4% | – |
| CC1=C[C@H](O)[C@H]2C[C@@H](C)CC[C@@H]2[C@@]1(C)C(=O)CCO [Compound 1] | 52.7 ± 1% | 64.7 ± 0.9% | 81.5% | do not exhibit the lethal activity |
| C[C@H]1CC[C@H]2[C@@H](C=C[C@@](C)(O)[C@]2(C)C(=O)CCOC(=O)Cc2ccc(O)c(O)c2)C1 [Compound 2] | 41 ± 0.8% | 55.4 ± 1.2% | 79.6% | do not exhibit the lethal activity |
